According to patent publication US20100210506A1, “INTRANASAL ADMINISTRATION OF RAPID ACTING INSULIN” (MDRNA, INC., priority 2005, published 2010):
“Also recorded” adds a separate entry of the source.

What was measured:
[1] = tested on: S. aureus, A. niger, P. auerignosa; experiment: Antimicrobial Effectiveness Testing, U.S. Pharmacopeial (USP <51>); assay type: cell-based; details: USP and EP AET, insulin nasal spray formulations at neutral pH
Protocol: AET Study 1 was conducted to determine the Antimicrobial Effectiveness (AET) of an insulin nasal spray placebo with methylparaben sodium, propylparaben sodium, and propylene glycol. Additionally, AET Study 1 examined the AET of increased EDTA alone. Approximately 120 mL of each formulation was manufactured and tested in duplicate (n=2 analyses per sample).
(§1) The AET methods used were in compliance with the requirements for U.S. Pharmacopeial (USP) and European Pharmacopeial (EP) AET and are described in Tables 34 and 35, respectively. The formulations were also tested for pH (per SOP 403), appearance (visual), and osmolality (per SOP 4000).

[2] = pH, appearance (visual) and osmolality of AET formulations; assay type: physicochemical; details: preservative within insulin nasal spray formulation
Protocol: as §1

Compound	antimicrobial effectiveness as preservative [1]	compatibility with insulin [2]	compatibility with insulin ([2]; listed as benzakonium chloride)	antimicrobial effectiveness as preservative ([1]; listed as benzakonium chloride)	antimicrobial effectiveness as preservative ([1]; listed as benzyl alcohol)
CCO [Ethanol]	antimicribal activity similar to that of methylparaben sodium/propylparaben sodium/propylene glycol; also recorded: not an effective preservative (at 1%)				
CCCCCCCCCCCCC[N+](C)(C)Cc1ccccc1 [Benzalkonium chloride]	excellent preservative	incompatible with insulin	incompatible with insulin (caused precipitation)	best antimicrobial performance	
O=C([O-])c1ccccc1.[Na+] [sodium benzoate]	not effective preservatives at neutral pH				
Cc1cccc(O)c1 [m-cresol]	not effective preservatives				
OCc1ccccc1 [Benzyl alcohol]	not effective preservatives at neutral pH; also recorded: ineffective as antimicrobial reagents				not effective preservatives
